Data: patent US6506766B1 (Abbott Laboratories, priority 1998, dated 2003)
Read-outs that look alike come from different tables or passages of the source.

How the values were obtained:
[1] = molecular target: T1, human glucocorticoid receptor-α [GRX] isoform (Homo sapiens, UniProt P04150); experiment: Radioligand binding with human glucocorticoid receptor cytosol ([3H]-dexamethasone competition); conditions: read-out: Ki (nM) GR
T1 construct: host or cells: insect SF21 cells (baculovirus)
T1 sequence (P04150 1-777): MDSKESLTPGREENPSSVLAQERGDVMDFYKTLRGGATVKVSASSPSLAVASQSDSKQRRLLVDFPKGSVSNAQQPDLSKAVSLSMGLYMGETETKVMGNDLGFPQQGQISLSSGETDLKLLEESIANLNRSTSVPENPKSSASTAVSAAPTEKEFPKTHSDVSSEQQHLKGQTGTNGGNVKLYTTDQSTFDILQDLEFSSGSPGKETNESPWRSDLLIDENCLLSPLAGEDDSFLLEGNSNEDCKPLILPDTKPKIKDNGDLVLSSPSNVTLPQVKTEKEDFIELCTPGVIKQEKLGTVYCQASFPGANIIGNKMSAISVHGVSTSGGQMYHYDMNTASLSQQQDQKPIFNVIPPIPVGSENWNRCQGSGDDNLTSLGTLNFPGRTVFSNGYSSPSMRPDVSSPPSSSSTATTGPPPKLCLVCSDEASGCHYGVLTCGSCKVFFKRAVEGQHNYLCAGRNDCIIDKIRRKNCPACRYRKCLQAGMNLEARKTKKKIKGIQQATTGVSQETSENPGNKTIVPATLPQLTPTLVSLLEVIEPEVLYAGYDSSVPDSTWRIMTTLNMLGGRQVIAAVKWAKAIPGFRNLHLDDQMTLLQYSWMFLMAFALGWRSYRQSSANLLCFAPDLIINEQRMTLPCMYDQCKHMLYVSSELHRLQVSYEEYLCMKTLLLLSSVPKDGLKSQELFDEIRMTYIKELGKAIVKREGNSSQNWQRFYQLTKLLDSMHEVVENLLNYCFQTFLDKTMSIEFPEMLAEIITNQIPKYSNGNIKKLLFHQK

[2] = molecular target: T2, human progesterone receptor-A [PRA] isoform (Homo sapiens, UniProt P06401); experiment: Radioligand binding with human progesterone receptor cytosol ([3H]-progesterone competition); conditions: read-out: Ki (nM) PR
T2 construct: host or cells: insect SF21 cells (baculovirus)
T2 sequence (P06401 1-769 isoform P06401-2): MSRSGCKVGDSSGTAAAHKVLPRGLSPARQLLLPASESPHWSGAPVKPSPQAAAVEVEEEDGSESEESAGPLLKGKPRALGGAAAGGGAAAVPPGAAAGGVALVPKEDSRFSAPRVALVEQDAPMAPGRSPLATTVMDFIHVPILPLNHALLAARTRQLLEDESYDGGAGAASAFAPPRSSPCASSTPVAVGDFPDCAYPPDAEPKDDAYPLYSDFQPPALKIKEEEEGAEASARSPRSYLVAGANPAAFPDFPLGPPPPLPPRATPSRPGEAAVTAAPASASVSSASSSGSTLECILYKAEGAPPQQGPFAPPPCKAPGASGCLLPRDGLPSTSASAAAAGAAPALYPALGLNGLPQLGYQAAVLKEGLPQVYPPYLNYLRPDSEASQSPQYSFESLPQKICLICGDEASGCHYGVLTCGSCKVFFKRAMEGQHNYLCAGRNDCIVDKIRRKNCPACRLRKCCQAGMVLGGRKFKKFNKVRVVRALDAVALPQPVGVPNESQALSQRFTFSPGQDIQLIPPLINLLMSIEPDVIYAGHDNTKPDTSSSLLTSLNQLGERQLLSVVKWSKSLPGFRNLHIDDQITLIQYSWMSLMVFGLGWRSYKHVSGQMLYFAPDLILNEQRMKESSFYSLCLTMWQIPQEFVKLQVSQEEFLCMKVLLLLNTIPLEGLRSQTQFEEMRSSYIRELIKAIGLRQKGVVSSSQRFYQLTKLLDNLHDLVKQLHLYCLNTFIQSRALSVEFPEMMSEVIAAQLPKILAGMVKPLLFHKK

[3] = GRX cytosol expressed in insect SF21 cells, [3H]-Dex ~0.9 nM, 4° C. overnight, Ki by Cheng-Prusoff, KL ~[…]
[4] = PRA cytosol expressed in insect SF21 cells, [3H]Prog ~0.8 nM, 4° C. overnight, Ki by Cheng-Prusoff, KL ~4.5 nM

Ki [1, 3]	Ki [2, 4]	melting point	Molecule	Ki [1]	Ki [2]
201 nM	≥ 10000 nM	130 to 135 °C	COc1cccc2c1-c1ccc3c(c1C(CNC(=O)OC(C)(C)C)O2)C(C)=CC(C)(C)N3 (centres unmarked) [Example 206]		
652 nM	≥ 10000 nM	150 to 152 °C	COC(=O)c1cccc2c1-c1ccc3c(c1C(c1ccccc1)O2)C(C)=CC(C)(C)N3 (centres unmarked) [Example 335, Methyl 2,5-Dihydro-5-phenyl-2,2,4-trimethyl-1H-[1]benzopyrano[3,4-f]quinoline-10-carboxylate]		
112 nM	≥ 10000 nM	218 to 224 °C	C=Cc1cccc2oc(=O)c3c4c(ccc3c12)NC(C)(C)C=C4C [Example 339, 2,5-Dihydro-10-ethenyl-5-oxo-2,2,4-trimethyl-1H-[1]benzopyrano[3,4-f]quinoline]		
		198 to 201 °C	C=Cc1cccc2c1-c1ccc3c(c1C(C1(C)CC=CCC1)O2)C(C)=CC(C)(C)N3 (centres unmarked) [Example 341, 2,5-Dihydro-10-ethenyl-5-[1-methyl-3-cyclohexenyl]-2,2,4-trimethyl-1H-[1]benzopyrano[3,4-f]quinoline]		
1.6 nM	406 nM		COc1c(O)ccc2c1-c1ccc3c(c1C(c1ccsc1)O2)C(C)=CC(C)(C)N3 (centres unmarked) [Example 444, 2,5-Dihydro-9-hydroxy-10-methoxy-2,2,4-trimethyl-5-(3-thienyl)-1H-[1]benzopyrano[3,4-f]quinoline]		
4 nM	3470 nM		COc1c(O)ccc2c1-c1ccc3c(c1C(Cc1ccc(F)cc1)O2)C(C)=CC(C)(C)N3 (centres unmarked) [Example 445, 2,5-Dihydro-9-hydroxy-10-methoxy-2,2,4-trimethyl-5-(4-(fluorophenyl)methyl)-1H-[1]benzopyrano[3,4-f]quinoline]		

The next lines start with the molecule.

Molecule	Ki [1, 3]	Ki [2, 4]	melting point	Ki [1]	Ki [2]
COc1cccc2c1-c1ccc3c(c1C(CC=C1CCCCC1)O2)C(C)=CC(C)(C)N3 (centres unmarked) [Example 187, 2,5-Dihydro-10-methoxy-5-(2-cyclohexylidenylethyl)-2,2,4-trimethyl-1H-[1]benzopyrano[3,4-f]quinoline]	46 nM	3900 nM	130 to 135 °C		
C=CCC1Oc2ccc(OC(=O)NC3CCCCC3)c(OC)c2-c2ccc3c(c21)C(C)=CC(C)(C)N3 (centres unmarked) [Example 443, 10-Methoxy-9-(cyclohexylaminocarbonyl)-oxy-5-(3-propenyl)-2,2,4-trimethyl-1H-2,5-dihydro-[1]benzopyrano[3,4-f]quinoline]				63.5 nM	≥ 10000 nM
(+/−)2,5-Dihydro-9-hydroxy-10-methoxy-2,2,4-trimethyl-5(S)-(3(S)-1-hydroxymethylcyclopenten-3-yl)-1H-[1]benzopyrano[3,4-f]quinoline [Example 270]				0.66 nM	4760 nM
O-[3-(2,5-Dihydro-10-methoxy-2,2,4-trimethyl-1H-[1]benzopyrano[3,4-f]quinolin-5-yl)phenyl]ester [Example 102]	17.7 nM	≥ 10000 nM			
